Test results: patent publication US4268630A, “Microbiological production of ketones from C3 -C6 alkanes” (priority 1979, dated 1981)

How the values were obtained:
[1] = tested on: Methylobacter capsulatus (Y, NRRL-B-11,201); assay: Conversion of n-alkanes to secondary alcohols by cell suspensions; format: cell-based; settings: growth substrate Methane
Excerpt: (§1) Both cell suspensions (particulate fraction) and cell-free particulate fraction of methane-grown methylotroph microorganisms are capable of catalyzing the conversion of C3 -C6 n-alkanes to the corresponding alcohols including secondary alcohols. The conditions for preparing the cell suspensions or the cell-free particulate fractions from methane-grown methylotroph microorganisms is the same as described above. The cell-free particulate fraction requires the presence of oxygen and NADH as an electron donor. […] Tables XVI and XVII show the conversion of C3 -C6 n-alkanes to the corresponding secondary alcohols using cell suspensions and cell-free particulate fractions, respectively, of methane-grown methylotroph microorganisms.

[2] = tested on: Methylococcus capsulatus (Texas, ATCC 19,069); assay: as above; format: cell-based; settings: growth substrate Methane
Excerpt: as §1

[3] = tested on: Methylobacterium sp. (CRL-26, NRRL-B-11,208); assay: as above; format: cell-based; settings: growth substrate Methane
Excerpt: as §1

[4] = tested on: Methylosinus trichosporium (OB3b, NRRL-B-11,196); assay: as above; format: cell-based; settings: growth substrate Methane
Excerpt: as §1

[5] = tested on: Methylomonas sp. (CRL-17, NRRL-B-11,209); assay: as above; format: cell-based; settings: growth substrate Methane
Excerpt: as §1

[6] = tested on: Methylosinus sp. (CRL-15, NRRL-B-11,202); assay: as above; format: cell-based; settings: growth substrate Methane
Excerpt: as §1

[7] = tested on: Methylosinus trichosporium OB3b NRRL B-11,196; assay: Conversion of n-alkanes to oxidation products by cell suspensions; format: cell-based; settings: methane-grown cell suspension, pH 7.0
Procedure: (§11) ^(a) Cell-suspensions of methanegrown methylotroph microorganisms
(§12) indicated in 0.15 M phosphate buffer, pH 7.0 incubated in the alkanes as
(§13) indicated at 3° C. The oxidation products were determined by g.l.c

[8] = tested on: Methylococcus capsulatus Texas (ATCC 19069); assay: Oxidation of n-alkanes to methyl ketones by resting cell suspension; format: cell-based; settings: cell suspension grown on methane
Procedure: (§2) The pH of the nutrient medium was adjusted to 7.0 by the addition of acid or base and 50 ml. samples of the nutrient medium were charged into a plurality of 300 ml. shaker flasks. The shaker flasks were inoculated with an inoculating loop of cells from an agar plate containing homogeneous colonies of the microorganisms on the plate (the purity of the isolates was confirmed by microscopic examination). The isolates had been maintained on methanol (0.4% V/V) agar plates or on agar plates under an atmosphere of methane and air having a 1:1 V/V gas ratio which had been transferred every two weeks. For growth on methanol, the medium was supplemented with 0.4% methanol. For growth on methane, the gaseous phase of the inoculated flasks was replaced with a gas mixture comprised on methane and air having a ratio of 1:1 on a V/V basis. The inoculated flasks were sealed air-tight and were incubated on a rotary shaker of orbital radius 2.5 cm. at 250 rpm and at 30° C. for two days until turbidity in the medium had developed. The cells were harvested by centrifugation at 10,000×g. at 4° C. for 30 minutes. The cell pellet was washed twice with a 0.05 M phosphate buffer at a pH of 7.0 (containing 0.02 M MgCl2). The washed cells were then suspended in a 0.05 M phosphate buffer at pH 7.0.
A 0.5 ml. sample of each washed cell suspension (2 mg. cells) was put into 10 ml. vials at 4° C. which were sealed with a rubber cap. The gaseous phase of the vials was removed with vacuum and then was replaced with a gas mixture of the substrate reactant (i.e., alkane or secondary alcohol) and oxygen at a 1:1 V/V ratio. (In the case of a liquid substrate, i.e., secondary alcohol, 10 μl of the substrate was put in the 10 ml. vials). […] Samples of product (1-3 μl) were withdrawn periodically with a microsyringe and the products were analyzed by gas chromatography (ionization flame detector column).

[9] = tested on: Methylococcus capsulatus CRL M1 NRRL B-11,219; assay: Conversion of n-alkanes to oxidation products by cell suspensions; format: cell-based; settings: methane-grown cell suspension, pH 7.0
Procedure: as §11, §12, §13

[10] = target: particulate P(40) fraction of Methylosinus sp. (CRL-15, NRRL-B-11,202) (Methylosinus trichosporium, UniProt Q50541+Q9KX50+Q9KX51); assay: Hydroxylation of n-alkanes to secondary alcohols by particulate P(40) fraction; format: biochemical
Sequence of particulate P(40) fraction of Methylosinus sp. (CRL-15, NRRL-B-11,202) (Q9KX50 40-431): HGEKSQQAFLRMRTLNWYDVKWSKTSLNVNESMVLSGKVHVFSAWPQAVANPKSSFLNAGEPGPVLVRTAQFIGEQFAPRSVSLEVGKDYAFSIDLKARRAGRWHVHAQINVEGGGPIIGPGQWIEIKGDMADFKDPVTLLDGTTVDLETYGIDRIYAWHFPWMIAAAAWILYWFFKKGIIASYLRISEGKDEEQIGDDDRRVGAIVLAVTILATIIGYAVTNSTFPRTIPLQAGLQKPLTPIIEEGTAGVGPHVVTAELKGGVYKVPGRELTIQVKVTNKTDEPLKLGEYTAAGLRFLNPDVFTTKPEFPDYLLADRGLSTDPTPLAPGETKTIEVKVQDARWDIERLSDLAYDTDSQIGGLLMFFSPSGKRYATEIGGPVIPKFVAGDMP
Sequence of particulate P(40) fraction of Methylosinus sp. (CRL-15, NRRL-B-11,202) (Q50541 1-252): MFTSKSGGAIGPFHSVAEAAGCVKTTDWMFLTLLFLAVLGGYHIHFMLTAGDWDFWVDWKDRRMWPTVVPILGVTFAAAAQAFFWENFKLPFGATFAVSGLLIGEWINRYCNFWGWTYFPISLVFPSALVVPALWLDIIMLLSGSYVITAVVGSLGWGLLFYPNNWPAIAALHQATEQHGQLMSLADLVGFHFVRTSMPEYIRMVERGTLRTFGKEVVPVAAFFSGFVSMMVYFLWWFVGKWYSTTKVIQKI
Sequence of particulate P(40) fraction of Methylosinus sp. (CRL-15, NRRL-B-11,202) (Q9KX51 1-256): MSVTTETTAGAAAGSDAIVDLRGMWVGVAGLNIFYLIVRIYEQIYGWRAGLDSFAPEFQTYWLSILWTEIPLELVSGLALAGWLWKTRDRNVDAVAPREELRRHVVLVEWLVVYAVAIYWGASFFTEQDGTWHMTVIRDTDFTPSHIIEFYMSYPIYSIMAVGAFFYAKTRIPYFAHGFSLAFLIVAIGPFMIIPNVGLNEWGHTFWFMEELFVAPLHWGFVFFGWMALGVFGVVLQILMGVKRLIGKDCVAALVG
Excerpt: as §1
(§3) ^(a) Particulate P(40) fraction was prepared as follows:
(§4) Cellsuspensions at 4° C. were disintegrated through a French
(§5) Pressure cell and centrifuged at 4000 × g. for 15 min. to remove
(§6) unbroken bacteria. The supernatant solution was then centrifuged at 40,00
(§7) × g. for 30 min. at 4° C. yielding the particulate P(40) and
(§8) soluble S(40) fractions. The products were identified by gas
(§9) chromatography and cochromatography with authentic standard.

[11] = tested on: particulate P(40) fraction of Methylococcus capsulatus (Texas, ATCC 19,069); assay: as above; format: biochemical
Excerpt: as §1, §3, §4, §5, §6, §7, §8, §9

[12] = tested on: particulate P(40) fraction of Methylosinus trichosporium (OB3b, NRRL-B-11,196); assay: as above; format: biochemical
Excerpt: as §1, §3, §4, §5, §6, §7, §8, §9

[13] = tested on: particulate P(40) fraction of Methylobacterium sp. (CRL-26, NRRL-B-11,222); assay: as above; format: biochemical
Excerpt: as §1, §3, §4, §5, §6, §7, §8, §9

[14] = tested on: Methylosinus sporium 5 (NRRL B-11,197); assay: Oxidation of n-alkanes to methyl ketones by resting cell suspension; format: cell-based; settings: cell suspension grown on methane
Procedure: as §2, with “The shaker flasks were inoculated with an inoculating loop of cells from an agar plate containing homogeneous colonies of the microorganisms on the plate (the purity of the isolates was confirmed by microscopic examination).” left out
(§10) A 0.5 ml. sample of each washed cell suspension (2 mg. cells) was put into 10 ml. vials at 4° C. which were sealed with a rubber cap. The gaseous phase of the vials was removed with vacuum and then was replaced with a gas mixture of the substrate reactant (i.e., alkane or secondary alcohol) and oxygen at a 1:1 V/V ratio. (In the case of a liquid substrate, i.e., secondary alcohol, 10 μl of the substrate was put in the 10 ml. vials). The vials were then incubated at 30° C. on a rotary shaker at 300 rpm. Samples of product (1-3 μl) were withdrawn periodically with a microsyringe and the products were analyzed by gas chromatography (ionization flame detector column).

[15] = tested on: Methylocystis parvus OBBP (NRRL B-11,198); assay: as above; format: cell-based; settings: cell suspension grown on methane
Procedure: as §2, with “The shaker flasks were inoculated with an inoculating loop of cells from an agar plate containing homogeneous colonies of the microorganisms on the plate (the purity of the isolates was confirmed by microscopic examination).” left out
as §10

[16] = tested on: Methylobacterium organophilum XX; assay: as above; format: cell-based; settings: cell suspension grown on methane
Procedure: as §2, with “The shaker flasks were inoculated with an inoculating loop of cells from an agar plate containing homogeneous colonies of the microorganisms on the plate (the purity of the isolates was confirmed by microscopic examination).” left out
as §10

[17] = tested on: Methylomonas methanica SI (NRRL B-11,199); assay: as above; format: cell-based; settings: cell suspension grown on methane
Procedure: as §2, with “The shaker flasks were inoculated with an inoculating loop of cells from an agar plate containing homogeneous colonies of the microorganisms on the plate (the purity of the isolates was confirmed by microscopic examination).” left out
as §10

[18] = tested on: Methylomonas albus BG8 (NRRL B-11,200); assay: as above; format: cell-based; settings: cell suspension grown on methane
Procedure: as §2, with “The shaker flasks were inoculated with an inoculating loop of cells from an agar plate containing homogeneous colonies of the microorganisms on the plate (the purity of the isolates was confirmed by microscopic examination).” left out
as §10

[19] = tested on: Methylosinus trichosporium OB3b (NRRL B-11,196); assay: as above; format: cell-based; settings: cell suspension grown on methane
Procedure: as §2, with “The shaker flasks were inoculated with an inoculating loop of cells from an agar plate containing homogeneous colonies of the microorganisms on the plate (the purity of the isolates was confirmed by microscopic examination).” left out
as §10

[20] = tested on: Methylobacter capsulatus Y (NRRL B-11,201); assay: as above; format: cell-based; settings: cell suspension grown on methane
Procedure: as §2, with “The shaker flasks were inoculated with an inoculating loop of cells from an agar plate containing homogeneous colonies of the microorganisms on the plate (the purity of the isolates was confirmed by microscopic examination).” left out
as §10

Compound	Conversion Rate, n-alkane to secondary alcohol [1] [μmoles/hr/^5 mg. protein]	Conversion Rate, n-alkane to secondary alcohol [2] [μmoles/hr/^5 mg. protein]	Conversion Rate, n-alkane to secondary alcohol [3] [μmoles/hr/^5 mg. protein]	Conversion Rate, n-alkane to secondary alcohol [4] [μmoles/hr/^5 mg. protein]	Conversion Rate, n-alkane to secondary alcohol [5] [μmoles/hr/^5 mg. protein]	Conversion Rate, n-alkane to secondary alcohol [6] [μmoles/hr/^5 mg. protein]	Conversion Rates, n-alkane to methyl ketone [8] [μmoles/hr/mg protein]	Conversion Rate, n-alkane to secondary alcohol [10]	Conversion Rate, n-alkane to secondary alcohol [11]	Conversion Rate, n-alkane to secondary alcohol [12]	Conversion Rate, n-alkane to secondary alcohol [13]	Conversion Rates, n-alkane to methyl ketone [14] [μmoles/hr/mg protein]	Conversion Rates, n-alkane to methyl ketone [15] [μmoles/hr/mg protein]	Conversion Rates, n-alkane to methyl ketone [16] [μmoles/hr/mg protein]	Conversion Rates, n-alkane to methyl ketone [17] [μmoles/hr/mg protein]	Conversion Rates, n-alkane to methyl ketone [18] [μmoles/hr/mg protein]	Conversion Rates, n-alkane to methyl ketone [19] [μmoles/hr/mg protein]	Conversion Rates, n-alkane to methyl ketone [20] [μmoles/hr/mg protein]	other results
CCC [n-Propane, n-propane]	0.20	1.1	1.4	2.5	1.6	2.1	1.2	1.5 μmoles/hr/2.0mg. of protein	1.2 μmoles/hr/2.0mg. of protein	1.32 μmoles/hr/2.0mg. of protein	1.0 μmoles/hr/2.0mg. of protein	2.1	1.8	2.8	2.5	2.7	1.5	1.6	Conversion Rate to product 1-Propanol [7]: 0.4 μmoles/hr./mg./protein; Conversion Rate to product 2-Propanol [7]: 0.6 μmoles/hr./mg./protein; Conversion Rate to product Acetone [7]: 0.2 μmoles/hr./mg./protein; Conversion Rate to product Propanol [7]: 0.1 μmoles/hr./mg./protein; Conversion Rate to product 1-Propanol [9]: 0.5 μmoles/hr./mg./protein; Conversion Rate to product 2-Propanol [9]: 0.7 μmoles/hr./mg./protein; Conversion Rate to product Acetone [9]: 0.3 μmoles/hr./mg./protein; Conversion Rate to product Propanol [9]: 0.2 μmoles/hr./mg./protein
CCCC [n-Butane, n-butane]	0.09	1.0	0.80	1.5	1.2	1.2	0.52	0.89 μmoles/hr/2.0mg. of protein	0.92 μmoles/hr/2.0mg. of protein	0.79 μmoles/hr/2.0mg. of protein	0.61 μmoles/hr/2.0mg. of protein	0.58	1.0	2.0	0.30	0.60	1.2	1.1	Conversion Rate to product 1-Butanol [7]: 0.3 μmoles/hr./mg./protein; Conversion Rate to product 2-Butanol [7]: 0.4 μmoles/hr./mg./protein; Conversion Rate to product 2-Butanone [7]: 0.1 μmoles/hr./mg./protein; Conversion Rate to product n-butanol [7]: 0.1 μmoles/hr./mg./protein; Conversion Rate to product 1-Butanol [9]: 0.4 μmoles/hr./mg./protein; Conversion Rate to product 2-Butanol [9]: 0.5 μmoles/hr./mg./protein; Conversion Rate to product 2-Butanone [9]: 0.2 μmoles/hr./mg./protein; Conversion Rate to product n-butanol [9]: 0.2 μmoles/hr./mg./protein
